From patent USRE35145E, “Substituted phthalocyanine” (Zeneca Limited, priority 1987, dated 1996)

What was measured:
[1] = Solubility in water, MEK, ethanol, glycols; type: physicochemical; conditions: 25° C., percentages by weight
Source text: Various applications of the present compounds, especially for printing inks, require products which are soluble in solvents of differing polarities. The major requirements are for water-soluble products (water and water-alcohol or water-glycol mixtures), alcohol (typically methanol, ethanol and propanol) and glycol (typically ethylene glycol and diethylene glycol) soluble products and ketone (typically MEK) soluble products.

[2] = Near infra-red absorption spectrum in solution (WLmax, ECmax, band width); type: physicochemical
Source text: The region from 750 to 1100 nm is of particular importance for optical character recognition (OCR) and for energy conversion, e.g. from laser radiation to heat. Many OCR systems use solid state semi-conductor lasers, which generally emit at 780-830 nm, as the radiation source and photodiode detectors based on silicon which have peak sensitivity around 900 rim.
WLmax is the wavelength of the absorption maximum; and
ECmax is the extinction coefficient at the absorption maximum.

hepta(4-methylphenylthio)-tetra(1-amino-2-thio-phen-1,2-ylene)-CuPc [OTCPC]
Solubility [1]: 10%
WLmax (wavelength of the absorption maximum) ([2]; in CH3 Cl): 890 nm
ECmax (extinction coefficient at the absorption maximum) ([2]; in MEK): 46,000
